In PubChem BioAssay (NCI):
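96-well plates; 48 h exposure; 5 concentrations. Endpoints by linear interpolation between flanking doses. Not reached: highest tested concentration assigned. GI50 marks 50% less growth. At the TGI there is no net growth.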

Columns and labels:
Experiment in all cases: DTP human tumour cell line panel, 48 h
CCRF-CEM leukemia = test system: CCRF-CEM leukemia
U251 CNS = test system: U251 CNS
NCI-H23 lung = test system: NCI-H23 lung
SK-OV-3 ovarian = test system: SK-OV-3 ovarian
A549 NSCLC = test system: A549 NSCLC
SK-MEL-2 melanoma = test system: SK-MEL-2 melanoma
SR leukemia = test system: SR leukemia
LOX IMVI melanoma = test system: LOX IMVI melanoma
MCF7 breast = test system: MCF7 breast
PC-3 prostate = test system: PC-3 prostate
BT-549 breast = test system: BT-549 breast
A498 renal = test system: A498 renal
ACHN renal = test system: ACHN renal
IGROV1 ovarian = test system: IGROV1 ovarian
786-0 renal = test system: 786-0 renal
MALME-3M melanoma = test system: MALME-3M melanoma
UACC-62 melanoma = test system: UACC-62 melanoma
MDA-MB-231 breast = test system: MDA-MB-231 breast
SW-620 colon = test system: SW-620 colon
NCI/ADR-RES ovarian = test system: NCI/ADR-RES ovarian
SF-295 CNS = test system: SF-295 CNS
KM12 colon = test system: KM12 colon
NCI-H460 lung = test system: NCI-H460 lung
SN12C renal = test system: SN12C renal
HCT-116 colon = test system: HCT-116 colon
OVCAR-5 ovarian = test system: OVCAR-5 ovarian
HCT-15 colon = test system: HCT-15 colon
SF-539 CNS = test system: SF-539 CNS
NCI-H226 lung = test system: NCI-H226 lung
RXF 393 renal = test system: RXF 393 renal
DU-145 prostate = test system: DU-145 prostate
HOP-92 NSCLC = test system: HOP-92 NSCLC
K-562 leukemia = test system: K-562 leukemia
HL-60(TB) leukemia = test system: HL-60(TB) leukemia
TK-10 renal = test system: TK-10 renal
RPMI-8226 leukemia = test system: RPMI-8226 leukemia
OVCAR-4 ovarian = test system: OVCAR-4 ovarian
MOLT-4 leukemia = test system: MOLT-4 leukemia
MDA-MB-435 = test system: MDA-MB-435
OVCAR-3 ovarian = test system: OVCAR-3 ovarian
UACC-257 melanoma = test system: UACC-257 melanoma
CAKI-1 renal = test system: CAKI-1 renal
SNB-19 CNS = test system: SNB-19 CNS
UO-31 renal = test system: UO-31 renal
SK-MEL-28 melanoma = test system: SK-MEL-28 melanoma
HOP-62 NSCLC = test system: HOP-62 NSCLC
EKVX NSCLC = test system: EKVX NSCLC
M14 melanoma = test system: M14 melanoma
T-47D breast = test system: T-47D breast
SNB-75 CNS = test system: SNB-75 CNS
OVCAR-8 ovarian = test system: OVCAR-8 ovarian
NCI-H522 lung = test system: NCI-H522 lung
SK-MEL-5 melanoma = test system: SK-MEL-5 melanoma
HS 578T breast = test system: HS 578T breast
SF-268 CNS = test system: SF-268 CNS
HCC-2998 colon = test system: HCC-2998 colon
HT29 colon = test system: HT29 colon
COLO 205 colon = test system: COLO 205 colon

O=c1cc(CNc2cc(F)cc(F)c2)c2ccc(I)cc2[nH]1
GI50 (CCRF-CEM leukemia): 498 nM
TGI (CCRF-CEM leukemia): > 57.7 µM
GI50 (U251 CNS): 574 nM
TGI (U251 CNS): > 100 µM
GI50 (NCI-H23 lung): 6.36 µM
TGI (NCI-H23 lung): > 100 µM
GI50 (SK-OV-3 ovarian): 1110 nM
TGI (SK-OV-3 ovarian): > 100 µM
GI50 (A549 NSCLC): 707 nM
TGI (A549 NSCLC): > 100 µM
GI50 (SK-MEL-2 melanoma): 1440 nM
TGI (SK-MEL-2 melanoma): > 100 µM
GI50 (SR leukemia): 129 nM
TGI (SR leukemia): > 100 µM
GI50 (LOX IMVI melanoma): 679 nM
TGI (LOX IMVI melanoma): > 100 µM
GI50 (MCF7 breast): 388 nM
TGI (MCF7 breast): > 100 µM
GI50 (PC-3 prostate): 571 nM
TGI (PC-3 prostate): > 100 µM
GI50 (BT-549 breast): 1020 nM
TGI (BT-549 breast): > 100 µM
GI50 (A498 renal): 279 nM
GI50 (ACHN renal): 750 nM
TGI (ACHN renal): > 100 µM
GI50 (IGROV1 ovarian): 2560 nM
TGI (IGROV1 ovarian): > 100 µM
GI50 (786-0 renal): 1050 nM
TGI (786-0 renal): > 100 µM
GI50 (MALME-3M melanoma): 714 nM
TGI (MALME-3M melanoma): > 100 µM
GI50 (UACC-62 melanoma): 508 nM
TGI (UACC-62 melanoma): > 100 µM
GI50 (MDA-MB-231 breast): 77.8 µM
TGI (MDA-MB-231 breast): > 100 µM
GI50 (SW-620 colon): 384 nM
TGI (SW-620 colon): > 100 µM
GI50 (NCI/ADR-RES ovarian): 537 nM
TGI (NCI/ADR-RES ovarian): > 100 µM
GI50 (SF-295 CNS): 441 nM
TGI (SF-295 CNS): > 100 µM
GI50 (KM12 colon): 423 nM
TGI (KM12 colon): > 100 µM
GI50 (NCI-H460 lung): 427 nM
TGI (NCI-H460 lung): > 100 µM
GI50 (SN12C renal): 798 nM
TGI (SN12C renal): > 100 µM
GI50 (HCT-116 colon): 492 nM
TGI (HCT-116 colon): > 100 µM
GI50 (OVCAR-5 ovarian): 16.2 µM
TGI (OVCAR-5 ovarian): > 100 µM
GI50 (HCT-15 colon): 387 nM
TGI (HCT-15 colon): > 100 µM
GI50 (SF-539 CNS): 461 nM
TGI (SF-539 CNS): > 69.9 µM
TGI (NCI-H226 lung): > 100 µM
GI50 (RXF 393 renal): 374 nM
TGI (RXF 393 renal): 38 µM
GI50 (DU-145 prostate): 1690 nM
TGI (DU-145 prostate): > 100 µM
GI50 (HOP-92 NSCLC): 1420 nM
TGI (HOP-92 NSCLC): > 100 µM
GI50 (K-562 leukemia): 203 nM
TGI (K-562 leukemia): > 100 µM
GI50 (HL-60(TB) leukemia): 337 nM
TGI (HL-60(TB) leukemia): > 51.1 µM
GI50 (TK-10 renal): > 100 µM
TGI (TK-10 renal): > 100 µM
GI50 (RPMI-8226 leukemia): 759 nM
TGI (RPMI-8226 leukemia): > 100 µM
GI50 (OVCAR-4 ovarian): 72.7 µM
TGI (OVCAR-4 ovarian): > 100 µM
GI50 (MOLT-4 leukemia): 1060 nM
TGI (MOLT-4 leukemia): > 100 µM
GI50 (MDA-MB-435): 108 nM
TGI (MDA-MB-435): 499 nM
GI50 (OVCAR-3 ovarian): 336 nM
TGI (OVCAR-3 ovarian): 39.6 µM
GI50 (UACC-257 melanoma): > 100 µM
TGI (UACC-257 melanoma): > 100 µM
GI50 (CAKI-1 renal): 421 nM
TGI (CAKI-1 renal): > 100 µM
GI50 (SNB-19 CNS): 637 nM
TGI (SNB-19 CNS): > 100 µM
GI50 (UO-31 renal): 4.27 µM
TGI (UO-31 renal): > 100 µM
GI50 (SK-MEL-28 melanoma): > 67.3 µM
TGI (SK-MEL-28 melanoma): > 100 µM
GI50 (HOP-62 NSCLC): 1980 nM
TGI (HOP-62 NSCLC): > 100 µM
GI50 (EKVX NSCLC): 2330 nM
TGI (EKVX NSCLC): > 100 µM
GI50 (M14 melanoma): 520 nM
TGI (M14 melanoma): > 100 µM
GI50 (T-47D breast): 1010 nM
TGI (T-47D breast): > 100 µM
GI50 (SNB-75 CNS): 199 nM
TGI (SNB-75 CNS): 3.45 µM
GI50 (OVCAR-8 ovarian): 2830 nM
TGI (OVCAR-8 ovarian): > 100 µM
GI50 (NCI-H522 lung): 305 nM
TGI (NCI-H522 lung): > 100 µM
GI50 (SK-MEL-5 melanoma): 641 nM
TGI (SK-MEL-5 melanoma): > 100 µM
GI50 (HS 578T breast): 410 nM
TGI (HS 578T breast): > 100 µM
TGI (SF-268 CNS): > 100 µM
GI50 (HCC-2998 colon): > 64.9 µM
TGI (HCC-2998 colon): > 100 µM
GI50 (HT29 colon): 361 nM
TGI (HT29 colon): > 100 µM
GI50 (COLO 205 colon): 606 nM
TGI (COLO 205 colon): > 100 µM
